Here are results for 3 molecules from ChEMBL document CHEMBL5678818, “Discovery of potent SOS1 inhibitors that block RAS activation via disruption of the RAS-SOS1 interaction” (Proc Natl Acad Sci U S A, 2019).

Experiment [1] concerns the target Son of sevenless homolog 1 (Homo sapiens, UniProt Q07889). As to the kind of experiment: Inhibition of N-terminal His10-tagged wild-type recombinant human SOS1 catalytic domain (564 to 1049 residues) expressed in Escherichia coli assessed as reduction in KRAS G12C mutant activation preincubated for 10 mins with KRAS followed by SOS1 addition measured after 30 mins in presence of EDA-GTP-DY-647P1 by HTRF analysis. Background: Time-resolved FRET reads energy transfer from a long-lived donor to a nearby acceptor.

In experiment [2] the target is Angiopoietin-1 receptor (Homo sapiens) (UniProt Q02763). In words: Inhibition of TIE2 (unknown origin) assessed as residual activity at 100 nM by KINOMEscan analysis relative to control.
Experiment [3] addresses Epidermal growth factor receptor (Homo sapiens, UniProt P00533). In words: Inhibition of EGFR (unknown origin) assessed as residual activity at 100 nM by KINOMEscan analysis relative to control.
In experiment [4] the test system is Mast/stem cell growth factor receptor Kit (Homo sapiens), P10721 [L576P]. As to the kind of experiment: Inhibition of KIT L576P mutant (unknown origin) assessed as residual activity at 100 nM by KINOMEscan analysis relative to control.
The target in experiment [5] is Tyrosine-protein kinase Fgr (Homo sapiens) (UniProt P09769). As to the kind of experiment: Inhibition of FGR (unknown origin) assessed as residual activity at 100 nM by KINOMEscan analysis relative to control.
Experiment [6] addresses T1, TGF-beta receptor type-1 (Homo sapiens) (UniProt P36897).
T1 sequence (whole entry): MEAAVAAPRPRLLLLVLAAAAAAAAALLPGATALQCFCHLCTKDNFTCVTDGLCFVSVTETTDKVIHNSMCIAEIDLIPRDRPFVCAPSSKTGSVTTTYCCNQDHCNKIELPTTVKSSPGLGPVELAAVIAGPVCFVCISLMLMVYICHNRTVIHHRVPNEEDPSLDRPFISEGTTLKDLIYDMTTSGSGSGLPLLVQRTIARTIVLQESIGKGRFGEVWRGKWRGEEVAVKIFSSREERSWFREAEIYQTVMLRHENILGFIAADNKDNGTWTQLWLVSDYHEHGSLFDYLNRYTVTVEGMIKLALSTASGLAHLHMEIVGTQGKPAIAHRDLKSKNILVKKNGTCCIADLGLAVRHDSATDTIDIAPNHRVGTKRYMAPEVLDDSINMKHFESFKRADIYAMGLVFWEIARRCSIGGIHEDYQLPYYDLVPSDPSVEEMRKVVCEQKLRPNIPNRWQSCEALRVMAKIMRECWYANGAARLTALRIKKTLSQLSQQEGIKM
In words: Inhibition of TGFBR1 (unknown origin) assessed as residual activity at 100 nM by KINOMEscan analysis relative to control.

In experiment [7] the target is Serine/threonine-protein kinase MRCK beta (Homo sapiens) (UniProt Q9Y5S2). As to the kind of experiment: Inhibition of MRCKB (unknown origin) assessed as residual activity at 100 nM by KINOMEscan analysis relative to control.
Experiment [8] concerns the target Serine/threonine-protein kinase 25 (Homo sapiens) (UniProt O00506). As to the kind of experiment: Inhibition of YSK1 (unknown origin) assessed as residual activity at 100 nM by KINOMEscan analysis relative to control.
Experiment [9] concerns the target T2, Dual serine/threonine and tyrosine protein kinase (Homo sapiens) (UniProt Q6XUX3).
T2 sequence (whole entry): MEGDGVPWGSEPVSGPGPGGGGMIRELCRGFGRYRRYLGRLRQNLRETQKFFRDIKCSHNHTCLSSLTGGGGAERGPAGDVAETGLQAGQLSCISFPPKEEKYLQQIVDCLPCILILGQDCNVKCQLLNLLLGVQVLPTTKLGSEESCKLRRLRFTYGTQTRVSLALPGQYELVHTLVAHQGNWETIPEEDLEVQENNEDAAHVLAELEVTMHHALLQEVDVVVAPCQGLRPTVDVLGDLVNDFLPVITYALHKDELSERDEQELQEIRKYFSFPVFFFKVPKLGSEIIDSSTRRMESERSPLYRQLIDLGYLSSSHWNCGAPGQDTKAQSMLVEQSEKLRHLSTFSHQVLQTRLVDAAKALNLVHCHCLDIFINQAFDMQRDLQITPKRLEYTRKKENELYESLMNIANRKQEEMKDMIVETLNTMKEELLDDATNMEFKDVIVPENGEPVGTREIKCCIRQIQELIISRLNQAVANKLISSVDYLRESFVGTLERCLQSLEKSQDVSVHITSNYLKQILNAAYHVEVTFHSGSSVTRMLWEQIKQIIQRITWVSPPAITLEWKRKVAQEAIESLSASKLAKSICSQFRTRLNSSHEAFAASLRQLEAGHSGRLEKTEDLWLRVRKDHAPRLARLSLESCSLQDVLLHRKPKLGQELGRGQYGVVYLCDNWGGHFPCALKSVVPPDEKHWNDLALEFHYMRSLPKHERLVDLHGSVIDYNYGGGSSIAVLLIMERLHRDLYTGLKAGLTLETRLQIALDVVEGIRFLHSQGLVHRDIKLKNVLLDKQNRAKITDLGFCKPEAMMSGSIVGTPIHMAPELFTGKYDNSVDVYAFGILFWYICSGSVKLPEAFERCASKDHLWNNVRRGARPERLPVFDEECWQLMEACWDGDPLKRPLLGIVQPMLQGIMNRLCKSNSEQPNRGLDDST
As to the kind of experiment: Inhibition of RIPK5 (unknown origin) assessed as residual activity at 100 nM by KINOMEscan analysis relative to control.

Experiment [10] has as its target T3, MAP kinase-activated protein kinase 5 (Homo sapiens) (UniProt Q8IW41).
T3 sequence (whole entry): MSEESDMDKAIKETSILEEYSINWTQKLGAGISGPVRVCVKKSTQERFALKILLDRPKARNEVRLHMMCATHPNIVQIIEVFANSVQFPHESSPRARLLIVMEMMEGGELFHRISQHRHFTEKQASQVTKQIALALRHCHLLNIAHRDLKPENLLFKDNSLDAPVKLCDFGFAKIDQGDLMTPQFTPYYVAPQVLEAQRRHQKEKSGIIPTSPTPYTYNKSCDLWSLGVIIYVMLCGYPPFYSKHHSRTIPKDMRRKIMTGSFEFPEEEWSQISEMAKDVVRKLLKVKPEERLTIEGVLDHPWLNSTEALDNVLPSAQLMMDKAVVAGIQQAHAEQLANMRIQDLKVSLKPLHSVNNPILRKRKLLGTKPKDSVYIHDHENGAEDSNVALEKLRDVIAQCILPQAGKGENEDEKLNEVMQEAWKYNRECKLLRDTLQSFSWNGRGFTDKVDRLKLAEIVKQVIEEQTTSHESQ
As to the kind of experiment: Inhibition of MAPKAPK5 (unknown origin) assessed as residual activity at 100 nM by KINOMEscan analysis relative to control.

Experiment [11] has as its system Receptor-type tyrosine-protein kinase FLT3 (Homo sapiens), P36888 [UNDEFINED MUTATION]. As to the kind of experiment: Inhibition of FLT3 ITD/F691L mutant (unknown origin) assessed as residual activity at 1000 nM by KINOMEscan analysis relative to control.

Tyrosine-protein kinase Fgr (Homo sapiens), sequence (P09769 2-529 limits assumed): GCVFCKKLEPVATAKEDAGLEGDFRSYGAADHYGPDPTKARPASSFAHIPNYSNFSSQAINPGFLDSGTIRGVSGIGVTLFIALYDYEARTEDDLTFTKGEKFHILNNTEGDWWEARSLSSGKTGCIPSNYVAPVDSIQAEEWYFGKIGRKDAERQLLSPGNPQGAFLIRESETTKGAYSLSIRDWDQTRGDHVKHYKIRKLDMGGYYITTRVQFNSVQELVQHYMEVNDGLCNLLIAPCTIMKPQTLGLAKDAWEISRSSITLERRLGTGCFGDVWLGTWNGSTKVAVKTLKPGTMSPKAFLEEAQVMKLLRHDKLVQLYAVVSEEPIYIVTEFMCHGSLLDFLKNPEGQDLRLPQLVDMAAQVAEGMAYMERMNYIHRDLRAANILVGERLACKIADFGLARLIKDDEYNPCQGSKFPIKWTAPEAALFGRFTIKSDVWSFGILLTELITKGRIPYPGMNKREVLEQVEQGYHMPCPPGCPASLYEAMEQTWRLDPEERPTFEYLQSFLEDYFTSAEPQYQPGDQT
Serine/threonine-protein kinase 25 (Homo sapiens), sequence (O00506 whole entry, looked up): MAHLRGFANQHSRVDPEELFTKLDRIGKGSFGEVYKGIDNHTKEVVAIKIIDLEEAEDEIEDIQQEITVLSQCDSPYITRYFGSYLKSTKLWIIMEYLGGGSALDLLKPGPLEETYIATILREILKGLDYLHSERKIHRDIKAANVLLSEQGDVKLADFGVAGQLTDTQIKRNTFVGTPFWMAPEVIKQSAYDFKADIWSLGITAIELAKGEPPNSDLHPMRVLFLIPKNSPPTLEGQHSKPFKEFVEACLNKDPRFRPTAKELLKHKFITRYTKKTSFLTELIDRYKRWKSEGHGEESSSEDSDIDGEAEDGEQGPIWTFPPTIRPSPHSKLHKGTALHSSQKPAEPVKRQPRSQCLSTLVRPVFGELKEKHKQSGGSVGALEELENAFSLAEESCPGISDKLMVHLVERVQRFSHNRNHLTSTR
Serine/threonine-protein kinase MRCK beta (Homo sapiens), sequence (Q9Y5S2 whole entry): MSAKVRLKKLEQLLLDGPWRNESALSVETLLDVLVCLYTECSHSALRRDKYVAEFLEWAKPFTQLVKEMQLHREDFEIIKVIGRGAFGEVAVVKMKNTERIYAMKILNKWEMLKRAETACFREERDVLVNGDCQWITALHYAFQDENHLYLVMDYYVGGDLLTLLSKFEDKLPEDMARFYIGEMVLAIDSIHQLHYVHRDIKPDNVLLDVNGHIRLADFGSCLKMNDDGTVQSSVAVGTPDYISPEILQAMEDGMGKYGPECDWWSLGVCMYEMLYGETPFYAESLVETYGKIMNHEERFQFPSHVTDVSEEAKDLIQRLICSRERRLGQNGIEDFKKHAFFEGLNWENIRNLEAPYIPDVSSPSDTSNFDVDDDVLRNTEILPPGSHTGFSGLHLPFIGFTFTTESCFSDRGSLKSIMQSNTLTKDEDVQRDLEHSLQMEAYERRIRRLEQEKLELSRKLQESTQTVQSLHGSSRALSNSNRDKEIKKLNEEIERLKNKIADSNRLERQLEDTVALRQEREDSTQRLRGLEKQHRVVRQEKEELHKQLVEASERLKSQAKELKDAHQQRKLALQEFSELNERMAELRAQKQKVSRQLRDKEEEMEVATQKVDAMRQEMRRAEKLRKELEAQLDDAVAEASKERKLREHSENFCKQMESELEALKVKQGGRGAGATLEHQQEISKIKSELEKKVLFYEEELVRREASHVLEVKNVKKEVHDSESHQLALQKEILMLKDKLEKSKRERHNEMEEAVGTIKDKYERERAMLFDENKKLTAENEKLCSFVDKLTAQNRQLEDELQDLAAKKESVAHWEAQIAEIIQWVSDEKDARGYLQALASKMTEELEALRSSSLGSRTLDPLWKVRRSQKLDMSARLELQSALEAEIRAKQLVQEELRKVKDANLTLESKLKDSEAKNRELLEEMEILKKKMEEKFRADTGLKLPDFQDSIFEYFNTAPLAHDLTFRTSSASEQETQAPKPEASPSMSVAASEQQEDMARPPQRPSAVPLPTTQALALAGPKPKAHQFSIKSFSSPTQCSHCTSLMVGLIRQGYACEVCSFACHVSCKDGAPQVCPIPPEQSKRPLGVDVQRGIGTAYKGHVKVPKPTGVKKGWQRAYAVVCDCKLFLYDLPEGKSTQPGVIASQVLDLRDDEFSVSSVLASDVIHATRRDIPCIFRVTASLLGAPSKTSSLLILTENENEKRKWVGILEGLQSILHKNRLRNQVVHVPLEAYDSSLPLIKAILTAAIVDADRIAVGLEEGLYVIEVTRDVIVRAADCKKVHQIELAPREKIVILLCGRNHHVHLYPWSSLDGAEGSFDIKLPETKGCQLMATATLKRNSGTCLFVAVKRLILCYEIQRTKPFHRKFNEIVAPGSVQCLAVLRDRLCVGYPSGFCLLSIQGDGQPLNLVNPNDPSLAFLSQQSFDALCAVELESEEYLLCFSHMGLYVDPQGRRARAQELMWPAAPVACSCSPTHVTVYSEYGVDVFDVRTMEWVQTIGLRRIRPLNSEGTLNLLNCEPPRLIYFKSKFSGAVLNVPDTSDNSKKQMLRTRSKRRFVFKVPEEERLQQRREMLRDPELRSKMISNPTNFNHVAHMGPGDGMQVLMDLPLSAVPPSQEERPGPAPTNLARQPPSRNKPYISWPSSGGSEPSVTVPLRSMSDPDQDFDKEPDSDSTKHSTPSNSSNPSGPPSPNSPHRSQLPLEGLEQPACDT
Receptor-type tyrosine-protein kinase FLT3 (Homo sapiens), P36888 [UNDEFINED MUTATION], sequence (P36888 whole entry, looked up, stated change not applied): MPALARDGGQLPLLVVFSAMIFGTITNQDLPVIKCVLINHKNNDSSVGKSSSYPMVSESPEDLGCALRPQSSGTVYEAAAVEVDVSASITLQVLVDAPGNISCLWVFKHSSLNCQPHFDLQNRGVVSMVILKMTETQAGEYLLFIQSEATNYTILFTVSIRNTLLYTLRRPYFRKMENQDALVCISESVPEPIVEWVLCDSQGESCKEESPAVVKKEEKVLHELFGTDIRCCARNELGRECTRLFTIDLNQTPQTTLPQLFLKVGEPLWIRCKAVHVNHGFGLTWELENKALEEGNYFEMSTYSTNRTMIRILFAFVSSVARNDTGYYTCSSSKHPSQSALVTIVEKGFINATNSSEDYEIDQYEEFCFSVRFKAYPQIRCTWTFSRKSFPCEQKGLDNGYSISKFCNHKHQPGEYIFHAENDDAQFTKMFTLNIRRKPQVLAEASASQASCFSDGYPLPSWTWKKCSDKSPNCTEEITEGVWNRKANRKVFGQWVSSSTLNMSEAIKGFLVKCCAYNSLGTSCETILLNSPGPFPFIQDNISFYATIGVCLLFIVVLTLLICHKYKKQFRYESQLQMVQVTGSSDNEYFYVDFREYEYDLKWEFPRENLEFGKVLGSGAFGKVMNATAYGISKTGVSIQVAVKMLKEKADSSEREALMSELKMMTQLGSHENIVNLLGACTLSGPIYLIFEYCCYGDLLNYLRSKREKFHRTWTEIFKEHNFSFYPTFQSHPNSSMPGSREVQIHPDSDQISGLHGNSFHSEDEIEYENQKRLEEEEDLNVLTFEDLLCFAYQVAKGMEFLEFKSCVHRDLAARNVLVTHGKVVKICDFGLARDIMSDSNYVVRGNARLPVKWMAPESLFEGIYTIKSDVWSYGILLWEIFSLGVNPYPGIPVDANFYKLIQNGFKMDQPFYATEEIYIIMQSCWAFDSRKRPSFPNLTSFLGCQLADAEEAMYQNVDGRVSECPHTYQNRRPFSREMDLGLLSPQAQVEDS
Epidermal growth factor receptor, sequence (P00533 whole entry): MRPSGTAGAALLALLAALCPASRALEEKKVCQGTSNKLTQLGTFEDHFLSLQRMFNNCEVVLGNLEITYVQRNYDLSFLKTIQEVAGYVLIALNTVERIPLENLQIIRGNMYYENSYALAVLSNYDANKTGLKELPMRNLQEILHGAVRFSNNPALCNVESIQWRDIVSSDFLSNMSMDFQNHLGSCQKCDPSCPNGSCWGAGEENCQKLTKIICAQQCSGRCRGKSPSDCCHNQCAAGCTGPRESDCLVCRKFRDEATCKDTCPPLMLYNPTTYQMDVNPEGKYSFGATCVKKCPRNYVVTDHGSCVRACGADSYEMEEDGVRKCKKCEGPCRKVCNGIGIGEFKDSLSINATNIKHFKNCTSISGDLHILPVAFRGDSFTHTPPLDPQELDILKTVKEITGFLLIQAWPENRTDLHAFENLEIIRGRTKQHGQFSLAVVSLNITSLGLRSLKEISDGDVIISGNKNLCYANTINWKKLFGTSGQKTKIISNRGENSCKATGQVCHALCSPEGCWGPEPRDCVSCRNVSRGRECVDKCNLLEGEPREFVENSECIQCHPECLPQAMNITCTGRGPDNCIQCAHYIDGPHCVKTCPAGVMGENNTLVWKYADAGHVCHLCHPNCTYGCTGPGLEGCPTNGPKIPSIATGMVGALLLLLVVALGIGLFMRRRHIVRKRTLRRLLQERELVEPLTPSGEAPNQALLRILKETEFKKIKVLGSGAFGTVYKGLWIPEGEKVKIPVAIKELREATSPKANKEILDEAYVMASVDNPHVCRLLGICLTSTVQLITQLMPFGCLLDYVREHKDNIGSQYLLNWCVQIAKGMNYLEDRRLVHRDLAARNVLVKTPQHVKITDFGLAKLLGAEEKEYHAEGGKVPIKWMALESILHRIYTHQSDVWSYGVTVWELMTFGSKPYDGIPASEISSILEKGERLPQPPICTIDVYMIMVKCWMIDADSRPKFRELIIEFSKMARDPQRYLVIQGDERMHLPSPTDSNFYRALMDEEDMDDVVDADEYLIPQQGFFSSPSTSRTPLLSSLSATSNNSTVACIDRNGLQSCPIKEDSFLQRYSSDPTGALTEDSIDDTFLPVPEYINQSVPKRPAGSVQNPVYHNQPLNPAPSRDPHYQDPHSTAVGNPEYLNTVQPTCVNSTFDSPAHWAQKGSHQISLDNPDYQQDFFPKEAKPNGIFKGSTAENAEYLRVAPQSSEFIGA

The IC50 is the concentration that inhibits the measured activity by half. For the molecule `COc1cc2nc(C)nc(NC(C)c3ccc(-c4cnc5n4CCC5)s3)c2cc1OC` (stereo unspecified), in experiment [1], the IC50 was 930 nM.

Regarding `COc1cc2ncnc(N[C@H](C)c3cccc4ccccc34)c2cc1OC`, the Activity was determined as 68% in [2]; 93% in experiment [3]; 85% in [4]; 81% in [5]; 83% in experiment [6]; 82% in [7]. Also, the Activity was found to be 100% in [8], 96% in experiment [9] and 94% in experiment [10].

For `COc1cc2nc(C)nc(N[C@H](C)c3cccc(-c4cn[nH]c4)c3)c2cc1OC`, in [11], the Activity worked out at 86%.
